# Experimental data taken from patent publication US20220016277A1, “MACROCYCLIC COMPLEXES OF RADIONUCLIDES AND THEIR USE IN RADIOTHERAPY OF CANCER” (Cornell University, priority 2018, published 2022).
# How the values were obtained:
# [1] = Kinetic inertness of La^3+ complex of macropa: transchelation challenge; type: physicochemical; conditions: La^3+ complex of macropa formed in situ; 1000 equiv of DTPA; whole 21-day observation
# Description: (§1) Kinetic Inertness of La^3+ and Lu^3+ Complexes of Macropa: Transchelation Challenge. A stock solution of ethylenediaminetetraacetic acid (EDTA, 100 mM) was made in MOPS buffer (prepared as described above) by adjusting the pH of the initial suspension to 6.6 using aqueous NMe4OH. A stock solution of diethylenetriaminepentaacetic acid (DTPA, 125 mM) was prepared in H2O by adjusting the pH to 7.4 as described for EDTA. This solution was serially diluted with H2O to yield 12.5 mM and 1.25 mM solutions of DTPA.
# (§2) The preformed La^3+ and Lu^3+ complexes of macropa were challenged with EDTA. […] […]. Solutions were repeatedly analyzed by UV spectroscopy over the course of 21 days for any spectral changes. The final pH of each solution was between 7.18 and 7.25.
# The complex formed in situ between La^3+ and macropa was more rigorously challenged with excess DTPA. A solution containing 500 μM of complex, prepared using the LaCl3 and macropa stock solutions described above, was left to equilibrate for 5 min. Subsequently, it was portioned into cuvettes and diluted with either 125 mM DTPA, 12.5 mM DTPA, 1.25 mM DTPA, or MOPS to yield solutions containing 1000-, 100-, 10-, or 0-fold excess DTPA and 100 μM concentration of macropa. These solutions were repeatedly analyzed by UV spectroscopy over the course of 21 days for any spectral changes. The final pH of each solution was between 7.11 and 7.42.
# [2] = Kinetic inertness of Lu^3+ complex of macropa: transchelation challenge; type: physicochemical; conditions: Lu^3+ complex of macropa formed in situ; addition of 10 equiv of EDTA; pH 7.4
# Description: as §1, §2
compound,measurement,setting,value
"O=C(O)c1cccc(CN2CCOCCOCCN(Cc3cccc(C(=O)O)n3)CCOCCOCC2)n1 [macropa, N,N′-bis[(6-carboxy-2-pyridil)methyl]-4,13-diaza-18-crown-6]",time La^3+ complex remained intact,[1],up to 21 days
same,time until Lu^3+ ion was transchelated,[2],≤ 1 min
